{
  "source": "patent US10138253B2",
  "about": "“Imidazopyridine macrocycles as inhibitors of human immunodeficiency virus replication” (priority 2015, dated 2018)",
  "key": {"[1]": {"details": "ether bond, 20-membered ring, PPh3/DIAD, THF"}, "[2]": {"details": "ether bond, PPh3/DIAD, THF"}, "[3]": {"details": "from COC(=O)[C@@H](OC(C)(C)C)c1c(C)c(C)c2nc(-c3cccc(-c4cc(F)c(F)cc4O)c3)c(C)n2c1N1CCC(C)(OCCOC[C@@H](C)O)CC1, 2.77 mM, 1.0 h, 2 steps"}, "[4]": {"details": "from COC(=O)[C@@H](OC(C)(C)C)c1c(C)c(C)c2nc(-c3cccc(-c4ccc(C)cc4O)c3)cn2c1N1CCC(C)(OCCOC[C@@H](C)O)CC1, 20.0 mM, 0.5 h"}, "[5]": {"details": "from COC(=O)[C@@H](OC(C)(C)C)c1c(C)c(C)c2nc(-c3cccc(-c4cc(C)ccc4O)c3)cn2c1N1CCC(C)(OCCOC[C@@H](C)O)CC1, 3.49 mM, 25.0 °C, 16.0 h"}, "[6]": {"details": "from COC(=O)[C@@H](OC(C)(C)C)c1c(C)c(C)c2nc(-c3cccc(-c4cc(F)ccc4O)c3)cn2c1N1CCC(C)(OCCOC[C@@H](C)O)CC1, 47.0 mM, 18.0 h"}, "[7]": {"details": "from COC(=O)[C@@H](OC(C)(C)C)c1c(C)cc2nc(-c3cccc(-c4c(O)cc(C)cc4F)c3)cn2c1N1CCC(C)(OCCOC[C@@H](C)O)CC1, 42.7 mM, 0.5 h, 2 steps"}, "[8]": {"details": "from COC(=O)[C@@H](OC(C)(C)C)c1c(C)cc2nc(-c3cccc(-c4ccc(C)cc4O)c3)cn2c1N1CCC(C)(OCCOC[C@@H](C)O)CC1, 1.41 mM, 1.0 h"}, "[9]": {"details": "from COC(=O)[C@@H](OC(C)(C)C)c1c(C)cc2nc(-c3cccc(-c4cc(F)c(F)cc4O)c3)cn2c1N1CCC(C)(OCCOC[C@@H](C)O)CC1, 10.0 mM, 0.5 h"}, "[10]": {"details": "from COC(=O)[C@@H](OC(C)(C)C)c1c(C)cc2nc(-c3cccc(-c4cc(C)ccc4O)c3)cn2c1N1CCC(C)(OCCOC[C@@H](C)O)CC1, 39.2 mM, 18.0 h, 2 steps"}},
  "note": "Like-named read-outs stand apart in the source and are kept apart here.",
  "data": [
    {"smiles": "COC(=O)[C@@H](OC(C)(C)C)c1c(C)c(C)c2nc3c(C)n2c1N1CCC(C)(CC1)OCCOC[C@H](C)Oc1cc(F)c(F)cc1-c1cccc-3c1", "values": [
      {"measurement": "ring closure, isolated yield", "setting": "[1]; [3]", "value": 30, "unit": "%"},
      {"measurement": "ring closure, yield of all isomers", "setting": "[2]; [3]", "value": 30, "unit": "%"}
    ]},
    {"smiles": "COC(=O)[C@@H](OC(C)(C)C)c1c(C)c(C)c2nc3cn2c1N1CCC(C)(CC1)OCCOC[C@H](C)Oc1cc(C)ccc1-c1cccc-3c1", "values": [
      {"measurement": "ring closure, isolated yield", "setting": "[1]; [4]", "value": 47, "unit": "%"},
      {"measurement": "ring closure, yield of all isomers", "setting": "[2]; [4]", "value": 47, "unit": "%"}
    ]},
    {"smiles": "COC(=O)[C@@H](OC(C)(C)C)c1c(C)c(C)c2nc3cn2c1N1CCC(C)(CC1)OCCOC[C@H](C)Oc1ccc(C)cc1-c1cccc-3c1", "values": [
      {"measurement": "ring closure, isolated yield", "setting": "[1]; [5]", "value": 60, "unit": "%"},
      {"measurement": "ring closure, yield of all isomers", "setting": "[2]; [5]", "value": 60, "unit": "%"}
    ]},
    {"smiles": "COC(=O)[C@@H](OC(C)(C)C)c1c(C)c(C)c2nc3cn2c1N1CCC(C)(CC1)OCCOC[C@H](C)Oc1ccc(F)cc1-c1cccc-3c1", "values": [
      {"measurement": "ring closure, isolated yield", "setting": "[1]; [6]", "value": 59, "unit": "%"},
      {"measurement": "ring closure, yield of all isomers", "setting": "[2]; [6]", "value": 59, "unit": "%"}
    ]},
    {"smiles": "COC(=O)[C@@H](OC(C)(C)C)c1c(C)cc2nc3cn2c1N1CCC(C)(CC1)OCCOC[C@H](C)Oc1cc(C)cc(F)c1-c1cccc-3c1", "values": [
      {"measurement": "ring closure, isolated yield", "setting": "[1]; [7]", "value": 6, "unit": "%"},
      {"measurement": "ring closure, yield of all isomers", "setting": "[2]; [7]", "value": 6, "unit": "%"}
    ]},
    {"smiles": "COC(=O)[C@@H](OC(C)(C)C)c1c(C)cc2nc3cn2c1N1CCC(C)(CC1)OCCOC[C@H](C)Oc1cc(C)ccc1-c1cccc-3c1", "values": [
      {"measurement": "ring closure, isolated yield", "setting": "[1]; [8]", "value": 65, "unit": "%"},
      {"measurement": "ring closure, yield of all isomers", "setting": "[2]; [8]", "value": 65, "unit": "%"}
    ]},
    {"smiles": "COC(=O)[C@@H](OC(C)(C)C)c1c(C)cc2nc3cn2c1N1CCC(C)(CC1)OCCOC[C@H](C)Oc1cc(F)c(F)cc1-c1cccc-3c1", "values": [
      {"measurement": "ring closure, isolated yield", "setting": "[1]; [9]", "value": 95, "unit": "%"},
      {"measurement": "ring closure, yield of all isomers", "setting": "[2]; [9]", "value": 95, "unit": "%"}
    ]},
    {"smiles": "COC(=O)[C@@H](OC(C)(C)C)c1c(C)cc2nc3cn2c1N1CCC(C)(CC1)OCCOC[C@H](C)Oc1ccc(C)cc1-c1cccc-3c1", "values": [
      {"measurement": "ring closure, isolated yield", "setting": "[1]; [10]", "value": 65, "unit": "%"},
      {"measurement": "ring closure, yield of all isomers", "setting": "[2]; [10]", "value": 65, "unit": "%"}
    ]}
  ]
}
